In patent publication US4221803A, “Substituted dibenzyl ethers and pharmaceutical compositions containing said ethers for the treatment of infections” (Recordati, S.A., priority 1979, dated 1980):
≈ marks a conversion by molar mass, not a printed value. Where two headings read alike, the source gives them in different places.

Legend:
[1] = Acute toxicity per os in the mouse; settings: in vivo, po
From the text: In Table I are reported the acute toxicity values (LD50) of the compounds I and of both the comparison substances. Toxicity, given in mg/Kg, has been evaluated per os in the mouse by conventional methods.

C.Albicans 1040 = assay: Antimycotic activity, two-fold serial broth dilution; assay type: cell-based; settings: Candida albicans, Sabouraud liquid pH 5.7, 37° C., 48 hours
Experimental: (§1) In Table II are reported the minimal inhibent concentrations (MIC) of the compounds I and of both the comparison substances. For MIC, the minimal concentration is intended, i.e., one which is able to inhibit the growth of several fungi and yeasts. The MIC values have been determined according to the usual two-fold serial broth dilution technique.
(§2) Medium: Sabouraud liquid pH 5.7 (5 ml per tube)
(§3) Inoculum: Yeasts were grown in Sabouraud liquid for 24 hours (Cryptococcus neoformans for 2 days). Cells were collected by centrifugation at 6500 rpm and again suspended in physiological solution so as to have a suspension giving on a Coleman Jr II spectrophotometer, at a wavelength of 650 nm, a 50% transparence (T). 0.1 ml of this suspension constituted the inoculum for 5 ml.
(§4) Temperature and incubation time: 37° C. for 48 hours.

C.Albicans 1041 = assay: as above; assay type: cell-based; settings: Candida albicans, Sabouraud liquid pH 5.7, 37° C., 48 hours
Experimental: as §1, §2, §3, §4

C.Albicans Grunenthal = assay: as above; assay type: cell-based; settings: Candida albicans, Sabouraud liquid pH 5.7, 37° C., 48 hours
Experimental: as §1, §2, §3, §4

C.Albicans R = assay: as above; assay type: cell-based; settings: Candida albicans, Sabouraud liquid pH 5.7, 37° C., 48 hours
Experimental: as §1, §2, §3, §4

C.Neoformans = assay: as above; assay type: cell-based; settings: Cryptococcus neoformans
Experimental: as §1, §2, §3, §4

A.Niger = assay: as above; assay type: cell-based; settings: Aspergillus niger, 168 h, Sabouraud liquid pH 5.7, 25° C., 7 days, inoculum 1/10 dilution
Experimental: as §1, §2
(§5) For Aspergillus niger, after filtration, a 1/10 dilution in physiological solution was prepared. 0.1 ml of this dilution constituted the inoculum for 5 ml.
(§6) Temperature and incubation time: 25° C. for 7 days.

E.Floccosum = assay: as above; assay type: cell-based; settings: Epidermophyton floccosum, 168 h, Sabouraud liquid pH 5.7, 25° C., 7 days
Experimental: as §1, §2, §5, §6

M.Canis 28 = assay: as above; assay type: cell-based; settings: Microsporum canis, 168 h, Sabouraud liquid pH 5.7, 25° C., 7 days
Experimental: as §1, §2, §5, §6

P.Chrysogenum = assay: as above; assay type: cell-based; settings: Penicillium chrysogenum, 168 h, Sabouraud liquid pH 5.7, 25° C., 7 days
Experimental: as §1, §2, §5, §6

T.Mentagroph. 10148 = assay: as above; assay type: cell-based; settings: 168 h
Experimental: as §1, §2, §5, §6

T.Mentagroph. 2538 = assay: as above; assay type: cell-based; settings: 168 h, Sabouraud liquid pH 5.7, 25° C., 7 days
Experimental: as §1, §2, §5, §6

T.Mentagroph. 5865 = assay: as above; assay type: cell-based; settings: 168 h, Sabouraud liquid pH 5.7, 25° C., 7 days
Experimental: as §1, §2, §5, §6

T.Rubrum 2121 = assay: as above; assay type: cell-based
Experimental: as §1, §2, §5, §6

T.Verrucosum = assay: as above; assay type: cell-based; settings: Trichophyton verrucosum, 168 h
Experimental: as §1, §2, §5, §6

B.subtilis = assay: Antibacterial activity, two-fold serial broth dilution; assay type: cell-based; settings: Bacillus subtilis
Experimental: (§7) The MIC values of the products under examination and of both comparison substances, referred to a certain number of gram positive bacteria and determined according to the conventional two-fold serial broth dilution technique, are reported in Table III.
(§8) Medium: Tryptic soy broth pH 7.3 (5 ml per tube)
(§9) Inoculum: The day before the test, the microorganisms to be tested were transplanted in their respective media. After 18 hours incubation at 37° C., 0.1 ml of a 1:100 diluted suspension of each strain in broth, were inoculated in 5 ml of medium containing the products under examination at a serial concentration of from 0.009 to 160 mcg/ml.
(§10) Temperature and incubation time: 37° C. for 18 hours.

Cl. novyi = assay: as above; assay type: cell-based; settings: Clostridium novyi, Tryptic soy broth pH 7.3, 37° C., 18 hours
Experimental: as §7, §8, §9, §10

S.aureus 10B = assay: as above; assay type: cell-based; settings: Staphylococcus aureus
Experimental: as §7, §8, §9, §10

S.aureus SG 511 = assay: as above; assay type: cell-based; settings: Staphylococcus aureus
Experimental: as §7, §8, §9, §10

Str.hemolyt 203 = assay: as above; assay type: cell-based
Experimental: as §7, §8, §9, §10

Str.hemolyt 821 = assay: as above; assay type: cell-based; settings: Tryptic soy broth pH 7.3, 37° C., 18 hours
Experimental: as §7, §8, §9, §10

[2] = 48 h, pH 5.7, read-out: Antimycotic activity (MIC)
[3] = pH 5.7, read-out: Antimycotic activity (MIC)
[4] = Trichophyton rubrum, 2121, 168 h, pH 5.7, read-out: Antimycotic activity (MIC)
[5] = 18 h, pH 7.3, read-out: Antibacterial activity (MIC)
[6] = 10B, 18 h, pH 7.3, read-out: Antibacterial activity (MIC)
[7] = SG511, 18 h, pH 7.3, read-out: Antibacterial activity (MIC)
[8] = Str.hemolyt 203, Tryptic soy broth pH 7.3, 37° C., 18 hours, read-out: Antibacterial activity (MIC)
[9] = C.Neoformans, Sabouraud liquid pH 5.7, 37° C., 48 hours, read-out: Antimycotic activity (MIC)
[10] = T.Mentagroph. 10148, Sabouraud liquid pH 5.7, 25° C., 7 days, read-out: Antimycotic activity (MIC)
[11] = Trichophyton rubrum, 168 h, T.Rubrum 2121, Sabouraud liquid pH 5.7, 25° C., 7 days, read-out: Antimycotic activity (MIC)
[12] = T.Verrucosum, Sabouraud liquid pH 5.7, 25° C., 7 days, read-out: Antimycotic activity (MIC)
[13] = B.subtilis, Tryptic soy broth pH 7.3, 37° C., 18 hours, read-out: Antibacterial activity (MIC)
[14] = S.aureus 10B, Tryptic soy broth pH 7.3, 37° C., 18 hours, read-out: Antibacterial activity (MIC)
[15] = SG511, S.aureus SG 511, Tryptic soy broth pH 7.3, 37° C., 18 hours, read-out: Antibacterial activity (MIC)

| SMILES | LD50 [1] [mg/kg] | MIC (C.Albicans 1040) [µg/mL] | MIC (C.Albicans 1041) [µg/mL] | MIC (C.Albicans Grunenthal) [µg/mL] | MIC (C.Albicans R) [µg/mL] | MIC (C.Neoformans; [2]) [µg/mL] | MIC (A.Niger) [µg/mL] | MIC (E.Floccosum) [µg/mL] | MIC (M.Canis 28) [µg/mL] | MIC (P.Chrysogenum) [µg/mL] | MIC (T.Mentagroph. 10148; [3]) [µg/mL] | MIC (T.Mentagroph. 2538) [µg/mL] | MIC (T.Mentagroph. 5865) [µg/mL] | MIC (T.Rubrum 2121; [4]) [µg/mL] | MIC (B.subtilis; [5]) [µg/mL] | MIC (Cl. novyi) [µg/mL] | MIC (S.aureus 10B; [6]) [µg/mL] | MIC (Str.hemolyt 203; [8]) [µg/mL] | MIC (Str.hemolyt 821) [µg/mL] | MIC (T.Verrucosum; [12]) [µg/mL] | other results |
| --- | --- | --- | --- | --- | --- | --- | --- | --- | --- | --- | --- | --- | --- | --- | --- | --- | --- | --- | --- | --- | --- |
| Clc1ccccc1C(c1ccccc1)(c1ccccc1)n1ccnc1 [Clotrimazole, [(imidazol-1-yl)-2-(o-chlorophenyl)-2,2-diphenylmethane]] | 880 | 40 (≈ 116 µM) | 40 (≈ 116 µM) | 10 (≈ 29 µM) | 10 (≈ 29 µM) | 0.625 (≈ 1.81 µM) | 10 (≈ 29 µM) | 5 (≈ 14.5 µM) | 2.5 (≈ 7.25 µM) | 40 (≈ 116 µM) | 1.25 (≈ 3.62 µM) | 0.078 (≈ 0.226 µM) | 0.62 (≈ 1.8 µM) | 1.25 (≈ 3.62 µM) | 2.5 (≈ 7.25 µM) | > 160 | 1.25 (≈ 3.62 µM) | 5 (≈ 14.5 µM) | 2.5 (≈ 7.25 µM) |  | MIC (T.Verrucosum; [3]): 1.25 µg/mL (≈ 3.62 µM); MIC (S.aureus SG 511; [7]): 0.312 µg/mL (≈ 0.905 µM) |
| Clc1ccc(C(Cn2ccnc2)OCc2ccc(Sc3ccccc3)cc2)c(Cl)c1 (stereo not drawn) [R=C6 H5 S, 2,4-Dichloro-4'-phenylthio-α-(N-imidazolyl-methyl)-dibenzyl ether] | 3000 | 80 (≈ 176 µM) | 80 (≈ 176 µM) | 40 (≈ 87.8 µM) | 40 (≈ 87.8 µM) |  | 10 (≈ 22 µM) | 5 (≈ 11 µM) | 2.5 (≈ 5.49 µM) | 5 (≈ 11 µM) |  | 0.156 (≈ 0.343 µM) | 1.25 (≈ 2.74 µM) |  |  | 5 (≈ 11 µM) |  | 0.078 (≈ 0.171 µM) | 0.156 (≈ 0.343 µM) | 1.25 (≈ 2.74 µM) | MIC (C.Neoformans; [9]): 0.156 µg/mL (≈ 0.343 µM); MIC (T.Mentagroph. 10148; [10]): 0.625 µg/mL (≈ 1.37 µM); MIC (T.Rubrum 2121; [11]): 0.625 µg/mL (≈ 1.37 µM); MIC (B.subtilis; [13]): 0.078 µg/mL (≈ 0.171 µM); MIC (S.aureus 10B; [14]): 0.018 µg/mL (≈ 0.0395 µM); MIC (S.aureus SG 511; [15]): 0.039 µg/mL (≈ 0.0856 µM) |
| Clc1ccc(C(Cn2ccnc2)OCc2ccc(-c3ccccc3)cc2)c(Cl)c1 (stereo not drawn) [R=C6 H5, 2,4-Dichloro-4'-phenyl-α-(N-imidazolyl-methyl)-dibenzyl ether] | 2400 | 10 (≈ 23.6 µM) | 20 (≈ 47.2 µM) | 5 (≈ 11.8 µM) | 5 (≈ 11.8 µM) |  | 20 (≈ 47.2 µM) | 10 (≈ 23.6 µM) | 20 (≈ 47.2 µM) | 20 (≈ 47.2 µM) |  | 0.156 (≈ 0.368 µM) | 1.25 (≈ 2.95 µM) |  |  | < 1.25 |  | 0.312 (≈ 0.737 µM) | 0.156 (≈ 0.368 µM) | 10 (≈ 23.6 µM) | MIC (C.Neoformans; [9]): 0.312 µg/mL (≈ 0.737 µM); MIC (T.Mentagroph. 10148; [10]): 0.625 µg/mL (≈ 1.48 µM); MIC (T.Rubrum 2121; [11]): 0.625 µg/mL (≈ 1.48 µM); MIC (B.subtilis; [13]): 0.156 µg/mL (≈ 0.368 µM); MIC (S.aureus 10B; [14]): 0.039 µg/mL (≈ 0.0921 µM); MIC (S.aureus SG 511; [15]): 0.039 µg/mL (≈ 0.0921 µM) |
| Clc1ccc(COC(Cn2ccnc2)c2ccc(Cl)cc2Cl)c(Cl)c1 (stereo not drawn) [Miconazole, 2,2',4,4'-tetrachloro-α-(N-imidazolyl-methyl)-dibenzyl ether] | 870 | 20 (≈ 48.1 µM) | 20 (≈ 48.1 µM) | 5 (≈ 12 µM) | 5 (≈ 12 µM) | 0.078 (≈ 0.187 µM) | 40 (≈ 96.1 µM) | 5 (≈ 12 µM) | 5 (≈ 12 µM) | 20 (≈ 48.1 µM) | 0.625 (≈ 1.5 µM) | 0.078 (≈ 0.187 µM) | 0.31 (≈ 0.745 µM) | 0.312 (≈ 0.75 µM) | 0.625 (≈ 1.5 µM) | < 1.25 | 0.312 (≈ 0.75 µM) |  | 1.25 (≈ 3 µM) | 2.5 (≈ 6.01 µM) | MIC (S.aureus SG 511; [7]): 0.312 µg/mL (≈ 0.75 µM); MIC (Str.hemolyt 203; [5]): 0.625 µg/mL (≈ 1.5 µM) |
